The assay in a line: DPPH radical scavenging assay. The assay is classed as biochemical. The conditions noted are these: DPPH radical scavenging activity in 30 minutes. As to the method:
FIGS. 4A through 4D show lipid peroxidation and DPPH (1,1-diphenyl-2-picrylhydrazyl) analysis result which were obtained by measuring the antioxidant activity of Comparative Example 1 (SBR), Comparative Example 2 (MOB) and Present Example 1 (GenoTX-407). […] As shown in the upper left graph of FIG. 4, after exposure to FeCl3 (50 μM), TBARS (thiobarbituric acid reactive substances) level increased (74%).
(In general: The DPPH test is a chemical assay of radical scavenging.)

Structures are written as SMILES. Values after ≈ are worked out from the molar mass of the structure shown.

As to `O=C1O[C@H]([C@@H](O)CO)C(O)=C1O` [ascorbic acid], the “EC50, DPPH” value was found to be 14.38 µg/mL (≈ 81.6 µM).

These data come from patent US20220080016A1, “Antioxidant, Antibacterial Or Anti-Inflammatory Pharmaceutical Composition Containing Scutellaria Baicalensis Extract And Magnolia Officinalis Extract As Active Ingredients” (Genogen Co.,Ltd., priority 2020, published 2022).
